Results taken from publication PMC3070735, “Uremic Toxins Inhibit Transport by Breast Cancer Resistance Protein and Multidrug Resistance Protein 4 at Clinically Relevant Concentrations” (PLoS ONE, 2011).
Counter-ions that a name gives are not always drawn.

Legend:
BCRP = molecular target: T1, BCRP (Homo sapiens, UniProt Q9UNQ0); assay: Membrane vesicle transport inhibition assay: BCRP-mediated [3H]-E1S uptake
T1 sequence (Q9UNQ0 1-655): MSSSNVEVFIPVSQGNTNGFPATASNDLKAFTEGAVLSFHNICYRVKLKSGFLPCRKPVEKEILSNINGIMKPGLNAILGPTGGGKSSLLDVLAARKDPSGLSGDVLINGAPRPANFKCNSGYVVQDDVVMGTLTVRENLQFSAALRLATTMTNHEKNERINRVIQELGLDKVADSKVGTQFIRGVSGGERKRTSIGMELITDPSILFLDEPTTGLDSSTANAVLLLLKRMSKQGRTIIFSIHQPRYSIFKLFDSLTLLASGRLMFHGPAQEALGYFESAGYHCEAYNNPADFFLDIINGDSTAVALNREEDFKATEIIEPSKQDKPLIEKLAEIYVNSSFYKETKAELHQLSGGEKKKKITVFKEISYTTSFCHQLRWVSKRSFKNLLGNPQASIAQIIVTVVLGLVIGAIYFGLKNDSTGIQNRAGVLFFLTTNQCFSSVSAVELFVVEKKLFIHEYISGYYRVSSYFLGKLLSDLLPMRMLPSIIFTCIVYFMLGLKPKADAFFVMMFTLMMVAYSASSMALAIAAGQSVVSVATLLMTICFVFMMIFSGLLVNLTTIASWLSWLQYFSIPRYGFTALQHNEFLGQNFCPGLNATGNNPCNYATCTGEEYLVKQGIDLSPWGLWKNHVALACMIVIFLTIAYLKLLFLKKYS
Procedure: (§1) Human embryonic kidney (HEK293; purchased at American Type Culture Collection, Manassas, VA) cells were cultured in Dulbecco's modified Eagle's medium (Invitrogen life sciences, Breda, the Netherlands) containing 10% (v/v) fetal calf serum (MP Biomedicals, Uden, the Netherlands) at 37°C in a 5% (v/v) CO2 atmosphere. To functionally overexpress MRP4 and BCRP, HEK293 cells were transduced with baculoviruses of human MRP4, BCRP or enhanced yellow fluorescent protein (EYFP), generated via the Bac-to-Bac system (Invitrogen) as previously described. To transduce HEK293 cells, they were cultured in 500 cm^2 flasks until 70% confluence. Subsequently, medium was removed and 10 ml of virus and 25 ml of medium were added and incubated for 30 min at 37°C. Next, 50 ml of medium was added and after 2 h of transduction 5 mM sodium butyrate was added.
(§2) Three days after transduction, cells were harvested and pelleted by centrifugation (30 min at 4,000 x g). Afterwards, the cells were resuspended in ice-cold hypotonic TS buffer (0.5 mM sodium phosphate, 0.1 mM EDTA, pH 7.0) containing protease inhibitors (100 µM phenylmethylsulfonyl fluoride, 5 µg/ml aprotinin, 5 µg/ml leupeptin, 1 µg/ml pepstatin and 1 µg/ml E-64) and shaken for 30 min at 4°C. Cells were then centrifuged at 100,000 x g for 30 min at 4°C. Subsequently, pellet was resuspended in ice-cold isotonic buffer (10 mM Tris-HEPES and 250 mM sucrose, pH 7.4, adjusted with HEPES) supplemented with protease inhibitors and homogenized using a tight fitting Dounce homogenizer followed by centrifugation (1,000 x g, 20 min, 4°C). Afterwards, supernatant was centrifuged at 100,000 x g for 1 h at 4°C. The resulting pellet was resuspended in isotonic buffer and passed through a 27-gauge needle 25 times to obtain crude membrane vesicles. The protein content of samples was determined using the Bio-Rad protein assay (Veenendaal, the Netherlands), according to manufacturers recommendations. Vesicles were frozen in liquid nitrogen and stored at −80°C until use. The orientation of the membrane vesicles was not determined, since ATP-dependent uptake occurs only in inside-out vesicles.
(§3) A rapid filtration technique was used to study the uptake of [^3H]-MTX and [^3H]-E1S into MRP4 or BCRP membrane vesicles, as previously described. In short, 25 µl of TS buffer containing 4 mM ATP, 10 mM MgCl2 and radiolabeled substrate was added to 5 µl of the membrane vesicles (1.5 mg/ml). The transport assay was performed in the absence or presence of various concentrations of uremic toxins to evaluate the inhibitory effects of these compounds on MRP4-mediated [^3H]-MTX uptake and BCRP-mediated [^3H]-E1S uptake. […] Uptake was stopped by placing the samples on ice and the addition of 150 µl ice cold TS buffer. Subsequently, the samples were transferred to a 96 well filter plate (Millipore, Etten-leur, the Netherlands) pre-incubated with TS buffer and filtered using a Multiscreen HTS-Vacuum Manifold filtration device (Millipore). Afterwards, 2 ml of scintillation liquid was added to each filter and radioactivity was determined using liquid scintillation counting. As negative controls ATP was substituted for AMP and EYFP-membrane vesicles were used. Each experiment was performed in triplicates.
(§4) Statistics were performed using GraphPad Prism 5.02 via an unpaired t test or a Kruskal-Wallis test followed by a Dunn's Multiple Comparison test. Differences between groups were considered to be statistically significant when p<0.05. The mean IC50 and IC20 values were calculated from the inhibition curves used for the Dixon analysis and to determine the inhibition constant (Ki) from the Dixon plots. Transport inhibition studies were performed in triplicate and repeated at least three times.

MRP4 = molecular target: T2, MRP4 (Homo sapiens, UniProt O15439); assay: Membrane vesicle transport inhibition assay: MRP4-mediated [3H]-MTX uptake
T2 sequence (O15439 1-1325): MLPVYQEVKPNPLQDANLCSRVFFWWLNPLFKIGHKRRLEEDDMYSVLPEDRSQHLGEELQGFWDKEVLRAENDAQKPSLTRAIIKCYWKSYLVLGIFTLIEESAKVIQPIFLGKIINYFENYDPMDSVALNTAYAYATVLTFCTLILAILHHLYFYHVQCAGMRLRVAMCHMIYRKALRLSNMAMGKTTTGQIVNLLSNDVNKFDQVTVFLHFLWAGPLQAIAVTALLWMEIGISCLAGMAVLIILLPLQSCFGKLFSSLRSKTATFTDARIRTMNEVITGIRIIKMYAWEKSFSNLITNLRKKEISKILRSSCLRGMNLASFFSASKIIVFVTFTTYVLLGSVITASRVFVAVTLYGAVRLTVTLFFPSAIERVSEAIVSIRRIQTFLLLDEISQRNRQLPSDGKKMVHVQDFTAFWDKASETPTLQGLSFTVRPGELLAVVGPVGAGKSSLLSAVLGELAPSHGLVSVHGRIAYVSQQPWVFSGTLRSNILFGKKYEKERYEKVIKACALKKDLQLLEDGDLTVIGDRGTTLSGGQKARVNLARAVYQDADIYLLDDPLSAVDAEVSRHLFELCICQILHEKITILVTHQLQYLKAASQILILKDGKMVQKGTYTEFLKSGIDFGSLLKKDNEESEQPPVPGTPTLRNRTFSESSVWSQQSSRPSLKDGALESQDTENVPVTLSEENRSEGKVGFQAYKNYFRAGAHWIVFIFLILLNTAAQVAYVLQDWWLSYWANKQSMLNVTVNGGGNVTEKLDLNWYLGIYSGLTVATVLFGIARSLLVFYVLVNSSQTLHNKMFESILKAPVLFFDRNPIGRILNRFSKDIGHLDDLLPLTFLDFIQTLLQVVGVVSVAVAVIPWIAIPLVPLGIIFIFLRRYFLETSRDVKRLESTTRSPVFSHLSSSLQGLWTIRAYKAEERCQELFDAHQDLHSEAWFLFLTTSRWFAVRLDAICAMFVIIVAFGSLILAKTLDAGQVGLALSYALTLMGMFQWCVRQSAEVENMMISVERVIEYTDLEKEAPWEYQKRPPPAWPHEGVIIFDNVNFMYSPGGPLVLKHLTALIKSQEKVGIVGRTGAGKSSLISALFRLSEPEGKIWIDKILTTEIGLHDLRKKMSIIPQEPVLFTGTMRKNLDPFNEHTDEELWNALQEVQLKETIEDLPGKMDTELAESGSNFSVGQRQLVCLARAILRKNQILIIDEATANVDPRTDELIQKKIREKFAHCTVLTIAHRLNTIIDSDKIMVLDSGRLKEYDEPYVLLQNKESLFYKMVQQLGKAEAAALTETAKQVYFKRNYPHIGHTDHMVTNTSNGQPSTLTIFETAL
Procedure: as §1
as §2, with “Subsequently, pellet was resuspended in ice-cold isotonic buffer (10 mM Tris-HEPES and 250 mM sucrose, pH 7.4, adjusted with HEPES) supplemented with protease inhibitors and homogenized using a tight fitting Dounce homogenizer followed by centrifugation (1,000 x g, 20 min, 4°C).” left out, “The resulting pellet was resuspended in isotonic buffer and passed through a 27-gauge needle 25 times to obtain crude membrane vesicles.” left out
as §3
as §4, with “Differences” for “Statistics were performed using GraphPad Prism 5.02 via an unpaired t test or a Kruskal-Wallis test followed by a Dunn's Multiple Comparison test. Differences”

[1] = set-up: method as in PMID 8832487, PMID 10052856; details: isolated perfused rat kidney, secretory transport; cited from earlier work

For `N.[3H]C1c2cc(OS(=O)(=O)O)ccc2[C@H]2CC[C@]3(C)C(=O)CC[C@H]3[C@@H]2C1[3H]` (stereo partly drawn) [[^3H]-E1S, [6′,7′-^3H(n)]-estrone-sulfate ammonium salt, reference compound], which “ATP-dependent uptake compared to EYFP controls” value (BCRP; BCRP-overexpressing vesicles vs EYFP controls) is on record?
Its value is 24 fold.

What about the “ATP-dependent uptake, average rate” value (BCRP; BCRP-overexpressing vesicles, no inhibitor) of the same compound?
The value was 15.5 pmol/mg/min.

What does the source list for `CN(Cc1cnc2nc(N)nc(N)c2n1)c1ccc(C(=O)N[C@@H](CCC(=O)O)C(=O)O)cc1` [[^3H]-MTX, [3′,5′,7′-^3H(n)]-methotrexate disodium salt, reference compound]?
ATP-dependent uptake compared to EYFP vesicles (MRP4; MRP4-overexpressing vesicles vs EYFP vesicles): 11 fold; ATP-dependent uptake, average rate (MRP4; MRP4-overexpressing vesicles, no inhibitor): 1.3 pmol/mg/min

With `Cc1ccc(C(=O)NCC(=O)O)cc1` [4-methyl hippuric acid] as the compound, how does the “Level in kidney tissue compared to the perfusate” value [1] read?
The value was 600 times.

Which “Level in kidney tissue compared to the perfusate” value [1] does the source give for `Cc1ccccc1C(=O)NCC(=O)O` [2-methyl hippuric acid] here?
The value was 175 times.
